Data: patent US9273088B2, “Ginsenoside derivative compounds and the use thereof in protection against ischemia/reperfusion injury” (Macau University of Science and Technology, priority 2013, dated 2016)

Assays:
[1] = test system: H9c2 cells; test: Cytotoxicity study in normoxia condition, MTT cell viability assay; type: cell-based, rat
Experimental: (§1) Embryonic rat heart derived cell line H9c2 (2-1), shorted in H9c2 cells, was purchased from ATCC (CRL-1446), which is a permanent cell line and derived from embryonic BDIX rat ventricular heart tissue. Dulbecco's Modified Eagle Medium, Fetal Bovine Serum, and Penicillin-Streptomycin-Glutamine, 2.5% Trypsin/EDTA solution, Phosphate-buffered saline from GIBCO® (Invitrogen™) were used.
(§2) H9c2 cells were cultured in DMEM medium supplemented with 10% fetal bovine serum, 1% glutamine, 50 U/ml penicillin and […] streptomycin. The culture atmosphere for H9c2 cells was 95% air with 5% carbon dioxide (CO2) at 37.0° C. The medium was replaced every 2-3 days. A stock of cells was grown in a 100 cm^2 culture dish and split before confluence at a subcultivation ratio of 1:4. Cells used for experiments were seeded at a density of 1.0×10^4 cells/well in a 96-well culture plate, and cells in each well were allowed to grow to 60-80% confluence within 24 h prior to drug treatment.
(§3) The cell viability was measured using the MTT colorimetric assay, which was based on the conversion of MTT to formazan crystals by mitochondrial dehydrogenase. Briefly, H9c2 cells were seeded in 96-well plates at 1×10^4 cells/well and incubated at 37° C. for 48 h. The cells were then treated with DMSO (H/R control), diazoxide (50 μM). Compounds A-G (at two concentrations of 12.5 μM or 25 μM) and incubated under hypoxia condition. The cells without any treatment and incubated under normoxia condition were used as normal control. At the end of the treatments, […] MTT (5 mg/ml) was added for 4 h and then […] MTT buffer (10% SDS solution, pH7.4) was added to each well. After overnight incubation and 30 s vibration, the absorbance was read at 490 nm wavelength. Results were expressed as the ratio of the number of viable cells with treatments relative to that of the normoxia control.
The cell line and reagents used, and cell culture methods, cell viability assay and statistical analysis employed were described in Example 2.
The cells were treated with desired concentrations of compounds A-G for 3 h, then the medium thereof was replaced with DMEM medium with 10% fetal bovine serum, 1% glutamine, 50 U/ml penicillin and […] streptomycin. The culture atmosphere for normaxia condition was 95% air with 5% carbon dioxide (CO2) at 37.0° C. The cells were then cultured in the incubator for designed periods. The cells without any treatment and incubated under normoxia condition were used as positive control.
Results were expressed as the ratio of the number of viable cells with treatments relative to that of the positive control.

[2] = test system: H9c2 cells; test: Hypoxia/reoxygenation (H/R) injury model, MTT cell viability assay; type: cell-based, rat; conditions: for protective effect compared with the positive control drug: vs diazoxide 50 μM; for protective effect compared with the positive control drug / order of cardioprotective effects / viability of cardiomyocyte cells after H/R (ratio of viable cells relative to normoxia control): hypoxia/reoxygenation; for order of cardioprotective effects: rank order of the 7 derivative compounds; for viability of cardiomyocyte cells after H/R (ratio of viable cells relative to normoxia control): mean±SEM
Experimental: as §1, §2
After treatment with desired concentrations of drug for 3 h, the cells were washed twice with Krebs-Ringer Bicarbonate buffer (KRB; 115 mM NaCl, 4.7 mM KCl, 2.5 mM CaCl2, 1.2 mM KH2PO4, 1.2 mM MgSO4, 24 mM NaHCO3, 10 mM HEPES; pH 7.4). Aliquots of KRB supplemented with 0.01% (w/v) BSA were added to the cells immediately prior to hypoxia. A Billups-Rothenberg modular incubator chamber (Billups-Rothenberg, Inc.; DelMar, Calif.) was used to produce an in vitro Hypoxia/Reoxygenation challenge. In essence, cells were placed in the sealed chamber and the chamber was flushed with 100% nitrogen for 5 min at a flow rate of 25 liter/min. After closing all sealable connectors, the chamber was transferred to an incubator and the cells in the chamber were subjected to a period of hypoxia at 37° C. Reoxygenation was initiated by opening the chamber and then replacing the KRB with fresh DMEM medium. The cells were then cultured in the incubator under an atmosphere of 5% (v/v) CO2 in air at 37° C. for designed periods.
as §3
Data were expressed as mean±SEM. One-way ANOVA with multiple comparisons using the Dunnett's Multiple Comparison Test was used to analyze differences between groups. All statistical analysis was performed using Prism 5 for Windows version 5.00 (GraphPad software, Inc., La Jolla, Calif. 92037 USA). Differences were considered significant if p<0.05.

Molecule	cytotoxicity under normoxia condition ([1]; equivalent dosages)	protective effect compared with the positive control drug ([2]; 12.5 or 25 μM)	order of cardioprotective effects [2]	further results
3-O-[β-D-glucopyranosyl(1→2)-β-D-glucopyranosyl]-3β,12β,20(R), 24(S)-tetrahydroxydammar-25-ene and its 24(R) epimer [Compound C]	no significant cytotoxicity	higher than the positive control drug	G>F>C>A>D>B, E	–
3-O-[β-D-glucopyranosyl(1→2)-β-D-glucopyranosyl]-3β,12β,20(R), 25-tetrahydroxydammar-23-ene [Compound D]	no significant cytotoxicity	higher than the positive control drug	G>F>C>A>D>B, E	viability of cardiomyocyte cells after H/R (ratio of viable cells relative to normoxia control) ([2]; 25 μM, 3 h pretreatment): 61.06±0.30%
3-O-[β-D-glucopyranosyl(1→2)-β-D-glucopyranosyl]-3β,12β,20(S),25-tetra-hydroxydammar-23-ene [Compound B]	–	–	G>F>C>A>D>B, E	–
3-O-[β-D-glucopyranosyl(1→2)-β-D-glucopyranosyl]-3β,12β,20(S), 24(S)-tetrahydroxydammar-25-ene and its 24(R) epimer [Compound A]	no significant cytotoxicity	higher than the positive control drug	G>F>C>A>D>B, E	cytotoxicity under normoxia condition ([1]; 12.5 μM, vs untreated control): no statistically significant cytotoxicity; cytotoxicity under normoxia condition ([1]; 25 μM, vs untreated control): no statistically significant cytotoxicity
3-O-[β-D-glucopyranosyl(1→2)-β-D-glucopyranosyl]-20(R), 24(S)-epoxydammarane-3β,12β-triol and its 24(R) epimer [Compound E]	no significant cytotoxicity	–	G>F>C>A>D>B, E	–
CC1=NS(=O)(=O)c2cc(Cl)ccc2N1 [Positive 50, diazoxide, reference compound]	–	–	–	viability of cardiomyocyte cells after H/R (ratio of viable cells relative to normoxia control) ([2]; 50 μM positive control, p<0.001): 61.69±0.37%
CC(C)=CCC[C@](C)(O)[C@H]1CC[C@]2(C)[C@@H]1[C@H](O)C[C@@H]1[C@@]3(C)CC[C@H](O[C@@H]4O[C@H](CO)[C@@H](O)[C@H](O)[C@H]4O[C@@H]4O[C@H](CO)[C@@H](O)[C@H](O)[C@H]4O)C(C)(C)[C@@H]3CC[C@]12C [Rg3, reference compound]	–	–	–	protective effect against I/R injury induced by hypoxia/reoxygenation, compared with H/R control group ([2]; 12.5 or 25 μM): have protective effect
